Laboratory results taken from PMC13252604, “First Generation Proteolysis Targeting Chimeras (PROTACs) for the Treatment of Progeria” (Advanced Science, 2026).

How the values were obtained:
[1] = system: Lmna^G609G/G609G fibroblasts; assay: Immunocytofluorescence (Ki‐67, lamin A/C) in mouse progeroid cells; assay type: cell-based; conditions: 5 µM
Procedure: (§1) Confocal fluorescence microscopy images are representative of 2 independent experiments. […] Representative cropped immunoblots are shown. […] MW, molecular weight (in kDa) markers. (C) PROTAC 2 decreases senescence‐associated β‐galactosidase (SA‐βgal) activity, interleukin (IL) 1α and p16 senescent markers. Lmna^G609G/G609G (G609G) or Lmna^+/+ (WT) fibroblasts were incubated with vehicle or compound 2 (5 µM). […] Data were analysed using one‐way ANOVA followed by Dunnett's post–hoc test. ^*, p < 0.05; ^**, p < 0.01, ^***, p < 0.001, ^****, p < 0.0001 vs G609G cells. […]
compound exposure. […]
(§2) TBS-T and proteins were visualized by quimioluminiscence (GE Healthcare […]
For immunocytofluorescence studies, mouse or human progeroid cells previously incubated with compound of interest or DMSO were seeded at a density of […] or 1.5 x 10^4 cells/well over 12 mm diameter slide covers respectively in a 12-well plate and were incubated for 24 h at 37 ᵒC with compound of interest. Cells were fixed with 4% formaldehyde (Ki67, pH2AX) or cold methanol (Lamin A/C, H3K9Me3) from Sigma-Aldrich during 20 min and permeabilized with PBS containing 0.2% Triton X-100 (PBS-T, Sigma-Aldrich). Then, cells were blocked with TBS 2% BSA during 30 min at rt, followed by incubation o.n. with anti-lamin A/C (Santa Cruz Biotechnology, SC-376248, […]
at 4 °C. After that, cells were washed with TBS (1x) and incubated in absence of light for 1 h with fluorescent goat anti-mouse (1:500, Alexa Fluor 488, Life Technologies) diluted in TBS with 2% BSA. Finally, cells were washed with TBS (2x) and the slide cover was carefully mounted with Immumount (Thermo Scientific). The visualization was carried out using confocal microscopy (Olympus IX83) equipped with a 40X oil immersion lens and the appropriate excitation and emission filters at the microscopy UCM facilities. […]
7. Senescence-associated (SA) β-galactosidase activity. […]

Stability in mouse serum = assay type: in vitro ADME
Text: TABLE 1 Pharmacokinetic parameters of PROTAC 2. | column: Stability (hours) ^b / m‐serum

[2] = system: Lmna^G609G/G609G fibroblasts; assay: Senescence-associated β-galactosidase activity in mouse progeroid cells; assay type: cell-based; conditions: 5 µM
Procedure: as §1, §2
SA β-galactosidase activity was determined by the FDG method. […]
ferrocyanide, 0.6 mL 5 M NaCl, 0.2 mL 0.2 M MgCl2, (all from Sigma Aldrich) and 6.2 mL of deionized water in a total volume of 20 mL] in the dark in a humidified incubator at 37 °C for 24 h without CO2 supply. Then, an equal volume of the supernatant of each well was transferred to a new 96-well plate for fluorescence measurement. The resultant production of fluorescein was measured using a FluoStar Optima instrument (BMG Labtech) with an excitation of 485 nm and emission at 535 nm. […]
Total RNA was extracted by RNAeasy Mini Kit (Qiagen) according to the manufacturer instructions and subsequently quantified using the NanoPhotometer N60 (Implen). […]

CC1(C)Oc2cc3oc(=O)ccc3cc2C[C@@H]1OC(=O)CCCCCNc1cccc2c1C(=O)N(C1CCC(=O)NC1=O)C2=O (some centres unmarked) [compound 2]
cell proliferation (Ki‐67) [1]: significantly increases cell proliferation | nuclear cell membrane thickness [1]: decreases nuclear cell membrane thickness | progerin accumulation in the nuclear membrane [1]: decreases progerin accumulation in the nuclear membrane | Stability (hours) m‐serum (Stability in mouse serum): 0.28 ± 0.02 h | senescence‐associated β‐galactosidase (SA‐βgal) activity [2]: significantly reduced
